# According to patent US20200147169A1, “COMPOSITION COMPRISING A HIGH CONCENTRATION OF ITURIN LIPOPEPTIDES” (LIPOFABRIK, priority 2017, published 2020):
# Assay: Solubility of iturinic lipopeptide (mycosubtilin) alone or in compositions with surfactants; supernatant after centrifugation analysed by RP-HPLC
# Assay type: physicochemical
# Protocol: An iturinic lipopeptide (here mycosubtilin), having a purity (on dry matter) of between 45% and 80%, was solubilized alone in water at different concentrations and this control composition was compared to different compositions to which different surfactant compounds were added as described in the application. After 15 days of storage at 21° C., only compositions with a rheological behaviour of the fluid type and a homogeneous appearance (without flow preventing caking and/or phase shift and/or precipitation) are selected, mixed by stirring, then these compositions are centrifuged for 10 minutes at 10,000 g and the supernatant is analysed using the RP-HPLC reference method. This method makes it possible to check the solubility of the iturinic compounds that are then found in the supernatant after centrifugation.
# The solubility of iturinic lipopeptide (here mycosubtilin) alone in an aqueous solution as a function of its concentration is shown in FIG. 1. No surfactant is added to composition 1 which contains only iturinic lipopeptides.
# The measurement is made on the supernatant after a centrifugation step to eliminate insoluble substances.
substance,measurement,setting,value
mycosubtilin,solubility of mycosubtilin,"alkylthoxyglycoside (AEG 0.4%, composition 8 of FIG. 2), 15 days at room temperature",above 30 g/L
same,iturinic compound solubility,"combination of surfactin and fengycin (composition 10 of FIG. 2), compared with fengycin or surfactin alone",even higher
same,appearance / solubility beyond the maximum concentration,"mycosubtilin alone in aqueous solution, between 5 and 25 g/L (FIG. 1)",a precipitate that settles can be observed and only a small part remains soluble
same,maximum concentration at which mycosubtilin solubilizes,"mycosubtilin alone in aqueous solution, room temperature, no surfactant (FIG. 1)",2 g/L
same,maximum solubility of mycosubtilin,"non-ionic Simulsol and anionic Protéol, 10% each (composition 3 of FIG. 2), 15 days at room temperature",15.3 g/L
same,maximum solubility of mycosubtilin,"non-ionic compound Emulsogen (0.2%) (composition 6 of FIG. 2), 15 days at room temperature",11.6 g/L
same,solubility of mycosubtilin,"penthylene glycol (50%, composition 7 of FIG. 2), 15 days at room temperature",above 30 g/L
same,solubility of mycosubtilin,"presence of fengycin (10%, composition 2 of FIG. 2), 15 days at room temperature, supernatant after centrifugation",~30 g/L
same,solubility of mycosubtilin,"presence of surfactin (4%, composition 9 of FIG. 2), 15 days at room temperature, supernatant after centrifugation",~30 g/L
same,maximum solubility of mycosubtilin,"soy lecithin (4%) coupled with Xanthan gum (0.1%) (composition 4 of FIG. 2), 15 days at room temperature",1.5 g/L
same,maximum solubility of the iturinic compound,"surfactin (4%) and non-ionic surfactant Emulsogen (0.2%) (composition 13 of FIG. 2), 15 days at room temperature",112 g/L
